Measured values taken from US10620214B2, “Chloroalkane penetration method for quantifying access of a molecule into a cell” (TRUSTEES OF TUFTS COLLEGE, priority 2016, dated 2020).

System: HaloEnzyme-GFP-expressing HeLa cell line
Experiment: Chloroalkane Penetration Assay (CAPA), cytosolic access
Assay type: cell-based
From the text: FIG. 1A provides a schematic showing the experimental procedure of CAPA, which uses a HaloEnzyme-GFP-expressing HeLa cell line. […] For CAPA, cells are pre-treated with vehicle or peptide, washed, and chased with HTag-TAMRA. Cells treated with cell-penetrant molecules have had their HaloEnzyme blocked, thus preventing the HTag-TAMRA from covalently labeling the cells. In this schematic, the molecule of interest is a peptide.
FIG. 1C provides a graph showing the dose-dependent response curve of HTag-TAMRA signal after pre-incubation with different concentrations of HTag-cTMP, HTag-DD5o, and the negatively charged, linear variant HTag-DD5-neg. Data was normalized using the values obtained for vehicle (0% HTag-TAMRA signal inhibition) and for vehicle with no HTag-TAMRA added (100% signal inhibition). Points are means from three independent experiments and error bars show standard deviation.
The CAPA method uses a cell line that stably expresses a cytosolically-oriented protein as a fusion with GFP and Haloenzyme. Haloenzyme is a modified bacterial chloroalkane dehalogenase that covalently labels itself with the small, otherwise inert Haloligand functional group. If an exogenously added molecule bearing the Haloligand (a small chloroalkane) reaches the cytosol, it reacts exclusively with the Haloenzyme and blocks its active site. Following this incubation period, the amount of unreacted Haloenzyme was measured by chasing with a Haloligand-bearing dye (here, Htag-TAMRA). The relative amount of red cellular fluorescence after this chase was then quantified by flow cytometry. The red signal reported directly on the amount of free Haloenzyme, which is inversely proportional to the degree to which the added molecule accessed the cytoplasm during the incubation period.
Halo-GFP-Mitochondrial targeted (Mito.)+mCherry-dihydrofolate reductase (DHFR) HeLa cells were obtained from the Chenoweth Lab as described by (Ballister et al., Nat. Commun. 2014. 5, 1-9), which is incorporated herein by reference. The expression vector used for the incorporation of GFP-Haloenzyme is shown at FIG. 3. Cells were cultured using DMEM+10% FBS+1% Pen/Strep+1 μg/mL puromycin. For experiments, cells were seeded in a 24-well plate the day before at 1.0×10^5 cells/well. Materials for cell culture were purchased from Thermo Scientific.
Cells were rinsed 1× with PBS, then treated with peptides in acidified Opti-MEM (0.15% 6N HCl) for 4 hours. Media was aspirated and cells were washed for 30 min with phenol red-free DMEM+10% FBS+1% pen/strep. Cells were chased with 5 μM HTag-TAMRA (Promega) in phenol red-free DMEM+10% FBS+1% pen/strep for 30 min. Cells were washed for 15 min with phenol red-free DMEM+10% FBS+1% pen/strep. Cells were rinsed once with phosphate buffered saline (PBS), then trypsinized and transferred to 1.5 mL Eppendorf tubes. Cells were pelleted and washed twice with PBS. Cell pellet was resuspended in 250 μL of PBS and 200 μL were transferred to 96-well plate for flow cytometry analysis. Data was gated for live cells measuring 10,000 cells per sample. Mean fluorescence intensity was obtained in the Yellow channel for HTag-TAMRA, and data was normalized. Background yellow fluorescence was observed both by flow cytometry and microscopy due to the constituent expression of mCherry-DHFR, but the signal observed for HTag-TAMRA-treated cells was 10-fold higher than background.

[1] = 50 μM inhibitor for 1 hr, then biomolecule 4 hr at 37° C., FIG. 5D

| SMILES | cytosolic penetration at 37° C. versus 4° C. | effect of EIPA on cytosolic penetration [1] | effect of chlorpromazine on cytosolic penetration [1] | time course of cytosolic penetration (FIG. 5A) |
| --- | --- | --- | --- | --- |
| N=C(N)NCCC[C@H](NC(=O)[C@H](CCCNC(=N)N)NC(=O)[C@H](CCCNC(=N)N)NC(=O)[C@H](CCCNC(=N)N)NC(=O)[C@H](CCCNC(=N)N)NC(=O)[C@H](CCCNC(=N)N)NC(=O)[C@H](CCCNC(=N)N)NC(=O)[C@H](CCCNC(=N)N)NC(=O)[C@H](CCCNC(=N)N)NC(=O)CCC(=O)NCCOCCOCCCCCCCl)C(N)=O [Arg9] | significantly greater at 37 °C compared to 4 °C | no significant reduction in cytosolic penetration |  |  |
| N[C@@H](Cc1c[nH]c2ccccc12)C(=O)O [Trp] |  | no significant reduction in cytosolic penetration | no effect | time-dependent cytosolic penetration |
